# Experimental data published in patent publication US12678419B2, “Compounds” (Sitryx Therapeutics Limited, priority 2020, dated 2026).
# Structures can show the parent of a compound that is named as a salt.
# Key:
# [1] = tested on: IL-1β cytokine output from THP-1s; assay: THP-1 AlphaLISA IL-1β cytokine assay; type: cell-based
# Description: (§1) The cytokine inhibition profiles of compounds of formula (I) were determined in a differentiated THP-1 cell assay. All assays were performed in RPMI-1640 growth medium (Gibco), supplemented with 10% fetal bovine serum (FBS; Gibco), 1% penicillin-streptomycin and 1% sodium pyruvate unless specified otherwise. The IL-1β and IL-6 cytokine inhibition assays were each run in a background of differentiated THP-1 cells as described below. All reagents described were from Sigma-Aldrich unless specified otherwise. Compounds were prepared as 10 mM DMSO stocks.
# (§2) THP-1 cells were expanded as a suspension up to 80% confluence in appropriate growth medium. Cells were harvested, suspended, and treated with an appropriate concentration of phorbol 12-myristate 13-acetate (PMA) over a 72 hr period (37° C./5% CO2).
# (§3) Following 72 hrs of THP-1 cell incubation, cellular medium was removed and replaced with fresh growth media containing 1% of FBS. Working concentrations of compounds were prepared separately in 10% FBS treated growth medium and pre-incubated with the cells for 30 minutes (37° C./5% CO2). Following the 30 minute compound pre-incubation, THP-1s were treated with an appropriate concentration of LPS and the THP-1s were subsequently incubated for a 24 hr period (37° C./5% CO2). An appropriate final concentration of Nigericin was then dispensed into the THP-1 plates and incubated for 1 hour (37° C./5% CO2) before THP-1 supernatants were harvested and collected in separate polypropylene 96-well holding plates.
# (§4) Reagents from each of the IL-1β and IL-6 commercial kits (Perkin Elmer) were prepared and run according to the manufacturer's instructions. Subsequently, fluorescence signal detection in a microplate reader was measured (EnVision® Multilabel Reader, Perkin Elmer).
# (§5) Percentage inhibition was calculated per cytokine by normalising the sample data to the high and low controls used within each plate (+/− LPS respectively). Percentage inhibition was then plotted against compound concentration and the 50% inhibitory concentration (IC50) was determined from the resultant concentration-response curve.
# [2] = tested on: NRF2 (nuclear factor erythroid 2-related factor 2); assay: NRF2 +/-GSH activation assay (DiscoverX PathHunter NRF2 translocation kit, U2OS cells); type: cell-based; settings: for Emax (%) +GSH / Emax (%) −GSH: normalised to dimethyl fumarate high control
# human hepatocytes = assay: Hepatocyte stability assay, human; type: in vitro ADME; settings: 10 μM compound
# From the text: (§6) Defrosted cryo-preserved hepatocytes (viability >70%) were used to determine the metabolic stability of a compound via calculation of intrinsic clearance (Clint; a measure of the removal of a compound from the liver in the absence of blood flow and cell binding). Clearance data are particularly important for in vitro work as they can be used in combination with in vivo data to predict the half-life and oral bioavailability of a drug.
# (§7) The metabolic stability in hepatocytes assay involves a time-dependent reaction using both positive and negative controls. The cells were pre-incubated at 37° C. and spiked with test compound (and positive control); samples were taken at pre-determined time intervals were analysed to monitor the change in concentration of the initial drug compound over 60 minutes. A buffer incubation reaction (with no hepatocytes present) acted as a negative control and two cocktail solutions, containing compounds with known high and low clearance values (verapamil/7-hydroxycoumarin and propranolol/diltiazem), acted as positive controls. • 1. The assay was run with a cell concentration of 0.5×10^6 cells/mL in Leibovitz buffer. • 2. All compounds and controls were run in duplicate. • 3. Compound concentration was 10 μM. • 4. All compounds and controls were incubated with both cells and buffer to show turnover was due to hepatic metabolism. • 5. All wells on the incubation plate had 326.7 μL of either cells or buffer added. • 6. Prior to assay, cell and buffer-only incubation plates were preincubated for 10 mins at 37° C. • 7. The assay was initiated by adding compounds, 3.3 μL of 1 mM in 10% DMSO-90% Buffer; final DMSO concentration was 0.1%. • 8. Samples were taken at regular timepoints (0, 5, 10, 20, 40, 60 min) until 60 mins. • 9. Sample volume was 40 μL and was added to 160 μL of crash solvent (acetonitrile with internal standard) and stored on ice. • 10. At the end of the assay, the crash plates were centrifuged at 3500 rpm for 20 mins at 4° C. • 11. 80 μL of clear supernatant was removed and mixed with 80 μL of deionised water before being analysed by LC-MS/MS.
# (§8) Raw LC-MS/MS data was exported to, and analysed in, Microsoft Excel for determination of intrinsic clearance. The percentage remaining of a compound was monitored using the peak area of the initial concentration as 100%. Intrinsic clearance and half-life values were calculated using a graph of the natural log of percentage remaining versus the time of reaction in minutes. Half-life (min) and intrinsic clearance (Clint in μL min^−1 10^−6 cells) values were calculated using the gradient of the graph (the elimination rate constant, k) and Equations 1 and 2.
# mouse hepatocytes = assay: Hepatocyte stability assay, mouse; type: in vitro ADME; settings: 10 μM compound
# From the text: as §6, §7, §8
# [3] = tested on: IL-6 cytokine output from THP-1s; assay: THP-1 AlphaLISA IL-6 cytokine assay; type: cell-based; settings: LPS then nigericin, Table 1
# Description: as §1, §2, §3, §4, §5
# [4] = Homo sapiens, THP-1, differentiated THP-1 cells, LPS then nigericin, Table 1
# [5] = Homo sapiens, THP-1, differentiated THP-1 cells, Table 2, compounds of formula (XVI)
# [6] = Homo sapiens, THP-1, differentiated THP-1 cells
# [7] = differentiated THP-1 cells, Table 2, compounds of formula (XVI)
# [8] = differentiated THP-1 cells, LPS then nigericin, Table 1
"IC50 [1, 4] [µM]",EC50 ([2]; +GSH) [µM],EC50 ([2]; −GSH) [µM],Clint (μL min^−1 10^−6 cells) (human hepatocytes),T½ (human hepatocytes) [min],Clint (μL min^−1 10^−6 cells) (mouse hepatocytes),T½ (mouse hepatocytes) [min],"IC50 [1, 8] [µM]",SMILES,Emax (%) +GSH ([2]; +GSH) [%],Emax (%) −GSH ([2]; −GSH) [%],other results
> 100,–,–,–,–,–,–,–,"C=C(CC(=O)OC)C(=O)OC [dimethyl itaconate, reference compound]",–,–,"IC50 [1, 5]: > 100 µM; IC50 [3, 6]: > 100 µM"
–,28.7,21.6,19,81,393,4,7.9,"C=C(CC(=O)OC1CCc2ccc(OC(F)(F)F)cc21)C(=O)OCC(=O)O (single isomer, unassigned; enantiomer 2) [Example 30, 2-((2-methylene-4-oxo-4-((6-(trifluoromethoxy)-2,3-dihydro-1H-inden-1-yl)oxy)butanoyl)oxy)acetic acid (Enantiomer 2)]",182,225,IC50 ([3]; differentiated THP-1 cells): 20.6 µM
2.2,10.1,18.1,4,335,37,41,–,"C=C(CC(=O)OC1CCc2c(Cl)cc(F)cc21)C(=O)OCC(=O)O (single isomer, unassigned; enantiomer 1) [Example 19, 2-((4-((4-chloro-6-fluoro-2,3-dihydro-1H-inden-1-yl)oxy)-2-methylene-4-oxobutanoyl)oxy)acetic acid (Enantiomer 1)]",48,224,–
–,–,–,15,95,>460,<3,2.6,"C=C(CC(=O)OC1CCc2c(Br)cc(F)cc21)C(=O)OCC(=O)O (single isomer, unassigned; enantiomer 2) [Example 16, 2-((4-((4-bromo-6-fluoro-2,3-dihydro-1H-inden-1-yl)oxy)-2-methylene-4-oxobutanoyl)oxy)acetic acid (Enantiomer 2)]",–,–,–
14.4,> 100,6,–,–,–,–,–,"COC(=O)/C=C/C(=O)OC [dimethyl fumarate, reference compound]",19,100,"IC50 [3, 6]: 9.3 µM"

# The remaining lines, values behind:
SMILES,"IC50 [1, 4] [µM]",EC50 ([2]; +GSH) [µM],EC50 ([2]; −GSH) [µM],Clint (μL min^−1 10^−6 cells) (human hepatocytes),T½ (human hepatocytes) [min],Clint (μL min^−1 10^−6 cells) (mouse hepatocytes),T½ (mouse hepatocytes) [min],"IC50 [1, 8] [µM]",Emax (%) +GSH ([2]; +GSH) [%],Emax (%) −GSH ([2]; −GSH) [%],other results
"C=C(CC(=O)OC1CCc2cc(Cl)cc(Cl)c21)C(=O)OCC(=O)O (single isomer, unassigned; enantiomer 1) [Example 8, 2-((4-((5,7-dichloro-2,3-dihydro-1H-inden-1-yl)oxy)-2-methylene-4-oxobutanoyl)oxy)acetic acid (Enantiomer 1)]",10.6,16.4,4.8,15,106,316,4,–,264,268,–
"C=C(CC(=O)OC1CCCc2cc(C(F)(F)F)ccc21)C(=O)O (single isomer, unassigned; enantiomer 2) [Intermediate 41, 2-methylene-4-oxo-4-((6-(trifluoromethyl)-1,2,3,4-tetrahydronaphthalen-1-yl)oxy)butanoic acid (Enantiomer 2)]",–,–,–,–,–,–,–,–,–,–,"IC50 [1, 7]: 31.7 µM"
"C=C(CC(=O)OC1CCc2cc(Cl)cc(Cl)c2C1)C(=O)OCC(=O)O (single isomer, unassigned; enantiomer 2) [Example 11, 2-((4-((6,8-dichloro-1,2,3,4-tetrahydronaphthalen-2-yl)oxy)-2-methylene-4-oxobutanoyl)oxy)acetic acid (Enantiomer 2)]",–,–,–,24,62,311,5,6.1,–,–,–
"C=C(CC(=O)OC1CCc2cc(Br)c(OC)cc21)C(=O)OCC(=O)O (single isomer, unassigned; enantiomer 1) [Example 12, 2-((4-((5-bromo-6-methoxy-2,3-dihydro-1H-inden-1-yl)oxy)-2-methylene-4-oxobutanoyl)oxy)acetic acid (Enantiomer 1)]",46.4,–,–,–,–,–,–,–,–,–,–
"C=C(CC(=O)OC1CCc2cc(Cl)cc(Cl)c21)C(=O)OCC(=O)O (single isomer, unassigned; enantiomer 2) [Example 9, 2-((4-((5,7-dichloro-2,3-dihydro-1H-inden-1-yl)oxy)-2-methylene-4-oxobutanoyl)oxy)acetic acid (Enantiomer 2)]",–,20.6,8.1,4,428,61,21,11.7,204,244,–
"C=C(CC(=O)OC1CCc2c(Cl)cc(Cl)cc21)C(=O)O (single isomer, unassigned; enantiomer 1) [Intermediate 25, 4-((4,6-dichloro-2,3-dihydro-1H-inden-1-yl)oxy)-2-methylene-4-oxobutanoic acid Enantiomer 1]",–,–,–,–,–,–,–,–,–,–,"IC50 [1, 5]: 43.2 µM"
"C=C(CC(=O)OCCCCCCCC)C(=O)O [4-octyl itaconate, reference compound]",–,–,–,401,4,351,4,–,–,–,–
"C=C(CC(=O)OC1CCc2cc(Br)c(OC)cc21)C(=O)OCC(=O)O (single isomer, unassigned; enantiomer 2) [Example 13, 2-((4-((5-bromo-6-methoxy-2,3-dihydro-1H-inden-1-yl)oxy)-2-methylene-4-oxobutanoyl)oxy)acetic acid (Enantiomer 2)]",–,–,–,–,–,–,–,34.9,–,–,–
"C=C(CC(=O)OC1CCc2cc(C(F)(F)F)ccc21)C(=O)O (stereo not drawn) [Intermediate 37, 2-methylene-4-oxo-4-((5-(trifluoromethyl)-2,3-dihydro-1H-inden-1-yl)oxy)butanoic acid]",–,–,–,–,–,–,–,–,–,–,"IC50 [1, 5]: 18.3 µM"
"C=C(CC(=O)OC1CCc2cc(Cl)c(Cl)cc21)C(=O)OCC(=O)O (single isomer, unassigned; enantiomer 2) [Example 6, 2-((4-((5,6-dichloro-2,3-dihydro-1H-inden-1-yl)oxy)-2-methylene-4-oxobutanoyl)oxy)acetic acid (Enantiomer 2)]",–,17.4,8.3,8,207,69,19,9.9,215,242,–
"C=C(CC(=O)OC1CCCc2cc(C(F)(F)F)ccc21)C(=O)O (single isomer, unassigned; enantiomer 1) [Intermediate 40, 2-methylene-4-oxo-4-((6-(trifluoromethyl)-1,2,3,4-tetrahydronaphthalen-1-yl)oxy)butanoic acid (Enantiomer 1)]",–,–,–,–,–,–,–,–,–,–,"IC50 [1, 7]: 5.3 µM"
